Measurements reported in patent publication US11805799B2, “Composition for preventing, relieving or treating climacteric disorders comprising lactic acid bacteria and prebiotics” (CELL BIOTECH CO., LTD., priority 2019, dated 2023).

Columns and labels:
[1] = Equol productivity of probiotic strains cultured in soybean germ extract (S30); settings: inoculated into 30% isoflavone-containing soybean germ extract (S30), 37° C., 48 hours
Description: A probiotic strain having the ability to produce equol from a soybean germ extract (S30) containing 30 wt % of isoflavone was selected.
First, a soybean germ extract was prepared using 40 g/L of a soybean germ extract (S30, prepared by Seorim Bio) containing 30 wt % of isoflavone and sterile water. The pH of the soybean germ extract was adjusted to 6.7 using 5M NaOH. The entire soybean germ extract was sterilized by autoclaving at 121° C. for 15 minutes. Microorganisms were activated in rehydrated MRS (Mann Rogosa Sharpe) broth (De Mann et al. 1960) at 37° C. for 20 hours three times, followed by fourth activation in the sterile soybean germ extract at an inoculum level of 5% (v/v). 40 to 400 mL of the sterile soybean germ extract was inoculated with the active culture (5% v/v), and incubated at 37° C. for 24 hours to hydrolyze isoflavone glycosides. The strain activated in the soybean germ extract was used.
In addition, samples were taken at regular time intervals in a time-dependent manner and measured for β-glucosidase activity. […] The sequence of the above screening steps was determined flexibly. That is, strains producing equol were first screened, and then β-glucosidase activity was measured, or strains having high β-glucosidase activity were first screened, and then whether the strains produced equol was examined. […]

estrogen receptor (ER) = settings: background statement; cited from earlier work
ERβ = ERβ (Homo sapiens, UniProt Q92731); settings: background statement; cited from earlier work
ERβ, sequence (Q92731 whole entry): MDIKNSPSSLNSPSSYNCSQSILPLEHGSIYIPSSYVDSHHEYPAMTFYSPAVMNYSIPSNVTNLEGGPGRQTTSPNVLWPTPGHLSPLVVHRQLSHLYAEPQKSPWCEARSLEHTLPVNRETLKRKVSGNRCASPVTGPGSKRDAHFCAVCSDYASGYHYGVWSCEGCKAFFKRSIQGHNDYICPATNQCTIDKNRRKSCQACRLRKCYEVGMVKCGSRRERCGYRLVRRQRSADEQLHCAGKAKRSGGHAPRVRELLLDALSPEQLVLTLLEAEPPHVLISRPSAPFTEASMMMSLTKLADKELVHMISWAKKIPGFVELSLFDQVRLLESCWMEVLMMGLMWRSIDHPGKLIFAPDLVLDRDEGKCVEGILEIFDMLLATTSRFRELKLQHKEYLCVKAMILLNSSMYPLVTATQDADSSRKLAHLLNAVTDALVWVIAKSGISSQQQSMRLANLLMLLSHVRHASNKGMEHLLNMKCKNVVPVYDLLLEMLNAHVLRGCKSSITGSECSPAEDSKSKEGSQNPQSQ

Bifidobacterium longum
equol production / equol productivity in culture supernatant [1]: equol was produced

O=c1c(-c2ccc(O)cc2)coc2cc(O)ccc12 [daidzein]
ER binding affinity (estrogen receptor (ER)): exhibits estrogen receptor (ER) binding affinity

Oc1ccc([C@H]2COc3cc(O)ccc3C2)cc1 [Equol]
ER binding affinity (estrogen receptor (ER)): higher ER binding affinity than daidzein | affinity for ERβ (ERβ): high affinity for ERβ
